{
  "source": "patent EP4793292A1",
  "about": "“POLYPEPTIDE DERIVATIVE, PHARMACEUTICAL COMPOSITION THEREOF AND USE THEREOF” (Biocells (Beijing) Biotech Co., Ltd., priority 2023, dated 2025)",
  "note": "Starred links: 1 amine or outer side, 2 acyl side, 3 side chain; linkers in the order of their positions; H or OH if unused. Positions of bridges follow the written chain, without caps; N, C: chain ends. Non-standard residues stand in square brackets, D forms with d. Residues, ends and D or L forms follow the SMILES beside them. Groups on a side chain read outwards from the residue. No end group written: not given here. *: point of attachment. C18 diacid = O=C(O)CCCCCCCCCCCCCCCCC(=O)*; γGlu = O=C(O)[C@H](CCC(=O)[*:2])N[*:1]; Palmitoyl = CCCCCCCCCCCCCCCC(=O)*; AEEA = NCCOCCOCC(=O)O",
  "data": [
    {"test_system": "SH-SY5Y cells", "assay": "Axonal growth of RA-differentiated SH-SY5Y cells on proteoglycan (ACAN) coating", "format": "cell-based, human", "conditions": "PW polypeptide 2.5 µM, 72 h, proteoglycan (ACAN)-coated plate, FIG. 1", "method": "Therefore, RA-induced differentiated SH-SY5Y can be used to simulate neuronal axonal growth in vitro and to test the effects of PW polypeptides on axonal growth.\nPreparation of culture medium for SH-SY5Y: 1) DMEM/F12 + 10% FBS + 1 × penicillin-streptomycin + 1 mM sodium pyruvate; 2) DMEM/F12 + 1% FBS + 1 × penicillin-streptomycin + 1 mM sodium pyruvate. Preparation of 50 mM retinoic acid stock solution: 15.02 mg of retinoic acid was weighed and dissolved in 1 mL of dimethyl sulfoxide (DMSO), aliquoted, and frozen at -80°C. Proteoglycan (ACAN/CSPG1) is a type of chondroitin sulfate proteoglycan (CSPG). Preparation of 1 mg/mL proteoglycan stock solution: 1 mg of ACAN solid was dissolved in 1 mL of distilled water, aliquoted, and frozen at -80°C. Preparation of PW polypeptide solution for cells (1 mM): the corresponding mass of polypeptide powder was weighed, dissolved in PBS and filtered through a 0.2 µm filter membrane, aliquoted, and frozen at -20°C.\nThe 1 mg/mL proteoglycan was diluted to 250 µg/mL with distilled water to coat a 24-well cell culture plate: each well was coated with 3 droplets of ACAN, 2 µL per droplet. Using the culture medium containing 10% FBS, SH-SY5Y cells were seeded in the proteoglycan-coated 24-well plate (20,000 cells/well) and incubated (37°C, 5% CO2) for 20 h. The medium was replaced with a culture medium containing 1% FBS, and PW polypeptide (2.5 µM) or an equal volume of PBS solution was added. After incubation for 72 h, the cells were fixed with 4% paraformaldehyde (room temperature, 30 min), and cell morphology was photographed and recorded using a 10× optical microscope. 20-30 cells were randomly selected under each field of view, and axonal length was measured using Image J-SNT.\nData analysis: All measured axonal lengths within each proteoglycan-coated range were averaged to serve as one data point. One-way analysis of variance and Tukey's test were used to compare the differences between groups. P<0.05 was considered as a significant difference.", "values": [
      {"compound": "CC[C@H](C)[C@H](NC(=O)[C@H](CO)NC(=O)[C@H](CCC(=O)O)NC(=O)[C@H](Cc1ccc(O)cc1)NC(=O)[C@@H]1CCC(=O)NCCCC[C@H](NC(=O)[C@H](CC(C)C)NC(=O)[C@H](CO)NC(=O)[C@H](CC(=O)O)NC(=O)[C@H](CC(N)=O)NC(=O)[C@H](C)NC(=O)[C@H](CCCCN)NC(=O)[C@H](CC(C)C)NC(=O)[C@H](CCCNC(=N)N)NC(=O)[C@H](CCC(=O)O)NC(=O)[C@@H](NC(=O)[C@H](Cc2c[nH]cn2)NC(=O)[C@H](CCC(=O)O)NC(=O)[C@H](C)NC(=O)[C@H](CCSC)NC(=O)[C@H](CC(=O)O)NC(=O)[C@H](CS)NC(=O)[C@H](CCCNC(=N)N)NC(=O)[C@H](CCCNC(=N)N)NC(=O)[C@H](CCCNC(=N)N)NC(=O)[C@H](CCC(N)=O)NC(=O)[C@H](CCCNC(=N)N)NC(=O)[C@H](CCCNC(=N)N)NC(=O)[C@H](CCCCN)NC(=O)[C@H](CCCCN)NC(=O)[C@H](CCCNC(=N)N)NC(=O)CN)[C@@H](C)O)C(=O)N[C@@H](CC(C)C)C(=O)N[C@@H](CO)C(=O)N[C@@H](CCC(N)=O)C(=O)N1)C(N)=O", "note": "[PW-170] (H-GRKKRRQRRRCDMAEHTERLKANDSLKLSQEYESI-NH2; lactam 27-31)", "effect of promoting axonal growth compared with the scrambled polypeptide (Scr, negative control)": "significant effect of promoting axonal growth", "promoting effect on axonal growth compared with PW6": "no significant difference"},
      {"compound": "NH2-GrKKRrQrRR-C-DMAEHTEALKANDSLcyclo(KLSQEYE)SI-NH2 [PW-239]", "effect of promoting axonal growth compared with the scrambled polypeptide (Scr, negative control)": "significant effect of promoting axonal growth", "promoting effect on axonal growth compared with PW6": "not significantly enhanced"},
      {"compound": "PW-92: polypeptide derivative, SEQ ID NO: 10 (G[dR]KKR[dR]QRRRCDMAEHTERLK([AEEA-AEEA-γGlu-C18 diacid])ANDSLKLSQEYESI-NH2; not fully specified (residue 8))", "effect of promoting axonal growth compared with the scrambled polypeptide (Scr, negative control)": "significant effect of promoting axonal growth", "promoting effect on axonal growth compared with PW6": "no significant difference"},
      {"compound": "PW-95: polypeptide derivative, SEQ ID NO: 12 (GRKKRRQRRRCDMAEHTERLKAKDSLKLSQEYESI; not fully specified; MOD_RES 35: note = I at position 35 is amidated; LIPID 23: note = Lys side-chain linked to 2-(2-(2-amino ethoxy) ethoxy) acetic acid-2-(2-(2-amino ethoxy) ethoxy)acetic acid-gamma Glutamic acid-Octadecanedioic acid; SITE 6: note = D-arginine; SITE 2: note = D-arginine; SITE 8: n)", "promoting effect on axonal growth compared with PW6": "not significantly enhanced"},
      {"compound": "PW-96: polypeptide derivative, SEQ ID NO: 13 (GRKKRRQRRRDMAEHTERLKAKDSLKLSQEYESI; not fully specified; MOD_RES 34: note = I at position 34 is amidated; LIPID 22: note = Lys side-chain linked to 2-(2-(2-amino ethoxy) ethoxy) acetic acid-2-(2-(2-amino ethoxy) ethoxy)acetic acid-gamma Glutamic acid-Octadecanedioic acid; SITE 6: note = D-arginine; SITE 2: note = D-arginine; SITE 8: n)", "promoting effect on axonal growth compared with PW6": "not significantly enhanced"},
      {"compound": "PW-252: polypeptide derivative, SEQ ID NO: 47 (G[dR]KKR[dR]Q[dR]RRCDMAEHTERLK([AEEA-AEEA-γGlu-Palmitoyl])ANDSLKLSQEYESI-NH2; N-terminus assumed; SMILES CCCCCCCCCCCCCCCC(=O)N[C@@H](CCC(=O)NCCOCCOCC(=O)NCCOCCOCC(=O)NCCCC[C@H](NC(=O)[C@H](CC(C)C)NC(=O)[C@H](CCCNC(=N)N)NC(=O)[C@H](CCC(=O)O)NC(=O)[C@@H](NC(=O)[C@H](Cc1c[nH]cn1)NC(=O)[C@H](CCC(=O)O)NC(=O)[C@H](C)NC(=O)[C@H](CCSC)NC(=O)[C@H](CC(=O)O)NC(=O)[C@H](CS)NC(=O)[C@H](CCCNC(=N)N)NC(=O)[C@H](CCCNC(=N)N)NC(=O)[C@@H](CCCNC(=N)N)NC(=O)[C@H](CCC(N)=O)NC(=O)[C@@H](CCCNC(=N)N)NC(=O)[C@H](CCCNC(=N)N)NC(=O)[C@H](CCCCN)NC(=O)[C@H](CCCCN)NC(=O)[C@@H](CCCNC(=N)N)NC(=O)CN)[C@@H](C)O)C(=O)N[C@@H](C)C(=O)N[C@@H](CC(N)=O)C(=O)N[C@@H](CC(=O)O)C(=O)N[C@@H](CO)C(=O)N[C@@H](CC(C)C)C(=O)N[C@@H](CCCCN)C(=O)N[C@@H](CC(C)C)C(=O)N[C@@H](CO)C(=O)N[C@@H](CCC(N)=O)C(=O)N[C@@H](CCC(=O)O)C(=O)N[C@@H](Cc1ccc(O)cc1)C(=O)N[C@@H](CCC(=O)O)C(=O)N[C@@H](CO)C(=O)N[C@H](C(N)=O)[C@@H](C)CC)C(=O)O)", "effect of promoting axonal growth compared with the scrambled polypeptide (Scr, negative control)": "significant effect of promoting axonal growth", "promoting effect on axonal growth compared with PW6": "no significant difference"},
      {"compound": "PW-253: polypeptide derivative, SEQ ID NO: 48 (G[dR]KKR[dR]Q[dR]RRDMAEHTERLK([AEEA-AEEA-γGlu-Palmitoyl])ANDSLKLSQEYESI-NH2; N-terminus assumed; SMILES CCCCCCCCCCCCCCCC(=O)N[C@@H](CCC(=O)NCCOCCOCC(=O)NCCOCCOCC(=O)NCCCC[C@H](NC(=O)[C@H](CC(C)C)NC(=O)[C@H](CCCNC(=N)N)NC(=O)[C@H](CCC(=O)O)NC(=O)[C@@H](NC(=O)[C@H](Cc1c[nH]cn1)NC(=O)[C@H](CCC(=O)O)NC(=O)[C@H](C)NC(=O)[C@H](CCSC)NC(=O)[C@H](CC(=O)O)NC(=O)[C@H](CCCNC(=N)N)NC(=O)[C@H](CCCNC(=N)N)NC(=O)[C@@H](CCCNC(=N)N)NC(=O)[C@H](CCC(N)=O)NC(=O)[C@@H](CCCNC(=N)N)NC(=O)[C@H](CCCNC(=N)N)NC(=O)[C@H](CCCCN)NC(=O)[C@H](CCCCN)NC(=O)[C@@H](CCCNC(=N)N)NC(=O)CN)[C@@H](C)O)C(=O)N[C@@H](C)C(=O)N[C@@H](CC(N)=O)C(=O)N[C@@H](CC(=O)O)C(=O)N[C@@H](CO)C(=O)N[C@@H](CC(C)C)C(=O)N[C@@H](CCCCN)C(=O)N[C@@H](CC(C)C)C(=O)N[C@@H](CO)C(=O)N[C@@H](CCC(N)=O)C(=O)N[C@@H](CCC(=O)O)C(=O)N[C@@H](Cc1ccc(O)cc1)C(=O)N[C@@H](CCC(=O)O)C(=O)N[C@@H](CO)C(=O)N[C@H](C(N)=O)[C@@H](C)CC)C(=O)O)", "effect of promoting axonal growth compared with the scrambled polypeptide (Scr, negative control)": "significant effect of promoting axonal growth", "promoting effect on axonal growth compared with PW6": "no significant difference"},
      {"compound": "PW-259: polypeptide derivative, SEQ ID NO: 50 (G[dR]KKR[dR]Q[dR]RRDMAEHTERLK([AEEA-γGlu-Palmitoyl])ANDSLKLSQEYESI-NH2; N-terminus assumed; SMILES CCCCCCCCCCCCCCCC(=O)N[C@@H](CCC(=O)NCCOCCOCC(=O)NCCCC[C@H](NC(=O)[C@H](CC(C)C)NC(=O)[C@H](CCCNC(=N)N)NC(=O)[C@H](CCC(=O)O)NC(=O)[C@@H](NC(=O)[C@H](Cc1c[nH]cn1)NC(=O)[C@H](CCC(=O)O)NC(=O)[C@H](C)NC(=O)[C@H](CCSC)NC(=O)[C@H](CC(=O)O)NC(=O)[C@H](CCCNC(=N)N)NC(=O)[C@H](CCCNC(=N)N)NC(=O)[C@@H](CCCNC(=N)N)NC(=O)[C@H](CCC(N)=O)NC(=O)[C@@H](CCCNC(=N)N)NC(=O)[C@H](CCCNC(=N)N)NC(=O)[C@H](CCCCN)NC(=O)[C@H](CCCCN)NC(=O)[C@@H](CCCNC(=N)N)NC(=O)CN)[C@@H](C)O)C(=O)N[C@@H](C)C(=O)N[C@@H](CC(N)=O)C(=O)N[C@@H](CC(=O)O)C(=O)N[C@@H](CO)C(=O)N[C@@H](CC(C)C)C(=O)N[C@@H](CCCCN)C(=O)N[C@@H](CC(C)C)C(=O)N[C@@H](CO)C(=O)N[C@@H](CCC(N)=O)C(=O)N[C@@H](CCC(=O)O)C(=O)N[C@@H](Cc1ccc(O)cc1)C(=O)N[C@@H](CCC(=O)O)C(=O)N[C@@H](CO)C(=O)N[C@H](C(N)=O)[C@@H](C)CC)C(=O)O)", "effect of promoting axonal growth compared with the scrambled polypeptide (Scr, negative control)": "significant effect of promoting axonal growth", "promoting effect on axonal growth compared with PW6": "no significant difference"}
    ]}
  ]
}
